Assay results reported in patent US9683014B2, “Dipeptide mimetics of NGF and BDNF neurotrophins” (UCHREZHDENIE ROSSIISKOI AKADEMII MEDITSYNSKIKH NAUK …, priority 2009, dated 2017).
Like-named read-outs stand apart in the source and are kept apart here. Marks after values point to notes of the source that are not given here.

Experiments:
[1] = test system: C57B1/6 mice; conditions: 1.0 mg/kg i.p. 24 h prior to MPTP 30 mg/kg i.p.; 60 min after MPTP; active control 8
Description: The test compound was administered intraperitoneally to male C57B1/6 mice weighing 22-25 g at a preselected dose of 1.0 mg/kg at 24 hours prior to the MPTP injection (30 mg/kg i.p.). The animals were placed in the open-field device 60 min after the MPTP injection. Animal's horizontal and vertical motor activities were monitored for 2 minutes. Passive control group was represented by animals treated with distilled water instead of MPTP. […] The treatment group was treated with GK-2 followed by MPTP. Statistical data treatment was carried out using the Mann-Whitney U-test.

[2] = test system: rat cerebral cortex cells; conditions: 1 mg/kg i.p., 4 injections; cells isolated day 16; FIG. 2.9
Description: (§1) The experiments were conducted on male outbred rats weighing 350-420 g. The test compound was administered intraperitoneally at a dose of 1 mg/kg. On day 1 the animals were given the first injection of the test compound. 24 hours later (day 2) they underwent surgery for a bilateral ligation of the carotid artery. Following another 24 h (day 3) the animals were given the second injection of the test compound. 96 hours later (day 7) they were given the third injection of the test compound. Following another 24 h (day 8) the animals were tested in an open field test (Jackson H. F., Broadhurst P. L. The effects of parachlorophenylalanine and stimulus intensity on open-field test measures in rats. Neuropharmacology, 1982, 21, 1279-1282). On the next day (day 9) they were allowed to explore new objects (a modification of the test described in Ennaceur A., Delacour J. A new one-trial test for neurobiological studies of memory in rats. 1: Behavioral data. Behavioral Brain Research, 1988, 31, 47-59). On day 11 the animals were given the fourth injection of the test compound. The animals were sacrificed by decapitation 120 hours after the last injection of the test compound (day 16).
(§2) The rats were distributed into 3 groups (n≧8 for each group) at random. Group 1 (sham-operated) comprised animals that were anesthetized followed by a sham operation and subsequently received 4 injections of physiological saline according to the experimental set-up; Group 2 (ligation) comprised animals that were anesthetized followed by surgery for a bilateral ligation of the carotid artery and subsequently received 4 injections of saline according to the experimental set-up; Group 3 (ligation+test compound) comprised animals that were anesthetized followed by surgery for a bilateral ligation of the carotid artery and subsequently received 4 injections of the test compound according to the experimental set-up.

[3] = test system: rats with bilateral ligation of the carotid artery; conditions: 1 mg/kg i.p.
Description: as §1, §2

[4] = test system: rats with hemorrhagic stroke; conditions: 1 mg/kg
Description: The experiments were carried out on male white outbred rats weighing 220-250 g. […] The local cerebral hemorrhage (post-traumatic intracerebral hemorrhage) as a hemorrhagic stroke (HS) model was produced by the method of Makarenko (Makarenko A. N. et al., Zh. V. N. D. 2002, 52(6), 765-768).
To produce the stroke, rats were anesthetized with chloral hydrate (400 mg/kg i.m.) followed by craniotomy. The cerebral tissue in the region of internal capsule was destroyed followed (in 2-3 min) by the injection of blood (0.02-0.03 ml) taken from under the animal's tongue.
The neurological deficits, changes in the coordination of movements, muscle tone, orientation and exploratory behavior of the rats were recorded at 24 h after surgery.
The rats were monitored for 14 days after surgery. Animal's physical condition and behavioral features were recorded at 1, 3, 7 and 14 days.
The animals were distributed into 3 groups. Group 1 comprised sham-operated (SO) rats with craniotomy alone, group 2 comprised animals with HS, and group 3 comprised rats with HS treated with GK-2 (1 mg/kg at 3 h after surgery and every 48 hours thereafter for a total of 6 administrations). Group 1 and group 2 animals were treated with physiological saline in an equivalent volume.
Changes in animals' physical condition and behavior were evaluated by conventional methods. The neurological status was assessed by scoring neurological deficits according to MacGrow's stroke scoring system as modified by I. V. Gannushkina; by the muscle tone and coordination of movements monitoring methods; cognitive function was assessed by the passive avoidance conditioned reflex (PAR); and orientation and exploratory behavior by using the open field test. Also the drug's effect on the survival of rats was monitored.

Structure (SMILES): NCCCC[C@H](NC(=O)[C@H](CCC(=O)O)NC(=O)CCC(=O)O)C(=O)NCCCCCCNC(=O)[C@H](CCCCN)NC(=O)[C@H](CCC(=O)O)NC(=O)CCC(=O)O [GK-2, bis-(N-monosuccinyl-glutamyl-lysine) hexamethylenediamide]
- Number of sectors crossed (% of passive control) [1]: 38*^+ % of passive control
- viability of the cortical cells (MTT) [2]: enhanced
- horizontal motor activity in the open field test ([3]; day 8, ligation reduced it, FIG. 2.5): restored it to the level found in the sham-operated rats
- vertical motor activity in the open field test ([3]; day 8, ligation reduced it, FIG. 2.6): restored it to the level found in the sham-operated rats
- total object smelling time and first-minute object exploration ([3]; day 9, FIGS. 2.7, 2.8): not different from the sham-operated rats
- Relative number of animals with paralysis of 1 to 4 limbs ([4]; Day 1, SO 0, HS 0): 0%
- Relative number of animals with paresis of 1 to 4 limbs ([4]; Day 1, SO 0, HS 37.5): 20%
- Relative number of animals with ring movements ([4]; Day 1, SO 0, HS 50): 20%
- Relative number of animals with limb weakness ([4]; Day 1, SO 30, HS 75): 30%
- Relative number of animals with floppiness & slowness of movements ([4]; Day 1, SO 40, HS 100): 40%
- Number of rats failing to mount the horizontal bar, abs. ([4]; Day 1, sham 3/10, stroke 6/8): 4/10
- Number of rats missing the rotating rod (3 rpm) during 2 min, abs. ([4]; Day 1, sham 3/10, stroke 6/8): 4/10
- Vertical motor activity ([4]; Day 1, sham 5.0, stroke 1.25): 3.7 ± 0.9
- Exploration of openings ([4]; Day 1, sham 10.3, stroke 1.9): 3.6 ± 0.7
- Horizontal motor activity ([4]; Day 1, sham 14.1, stroke 4.4): 9.9 ± 2.1
- Number of rats failing to mount the horizontal bar, % ([4]; Day 1, sham 30, stroke 75): 40%
- Number of rats missing the rotating rod (3 rpm) during 2 min, % ([4]; Day 1, sham 30, stroke 75): 40%
- Cumulative index ([4]; Day 1, sham 30.3, stroke 7.5): 17.2 ± 3.5
- Relative number of animals with paralysis of 1 to 4 limbs ([4]; Day 3, SO 0, HS 0): 0%
- Relative number of animals with paresis of 1 to 4 limbs ([4]; Day 3, SO 0, HS 25): 0%
- Relative number of animals with ring movements ([4]; Day 3, SO 0, HS 37.5): 10%
- Relative number of animals with limb weakness ([4]; Day 3, SO 30, HS 75): 30%
- Relative number of animals with floppiness & slowness of movements ([4]; Day 3, SO 30, HS 100): 30%
- Number of rats failing to mount the horizontal bar, abs. ([4]; Day 3, sham 2/10, stroke 3/8): 2/10
- Number of rats missing the rotating rod (3 rpm) during 2 min, abs. ([4]; Day 3, sham 2/10, stroke 5/8): 3/10
- Exploration of openings ([4]; Day 3, sham 4.0, stroke 3.1): 3.7 ± 0.9
- Vertical motor activity ([4]; Day 3, sham 4.6, stroke 1.1): 2.4 ± 0.6
- Horizontal motor activity ([4]; Day 3, sham 9.3, stroke 3.0): 5.6 ± 1.4
- Cumulative index ([4]; Day 3, sham 17.9, stroke 7.2): 11.7 ± 2.4
- Number of rats failing to mount the horizontal bar, % ([4]; Day 3, sham 20, stroke 37.5): 20%
- Number of rats missing the rotating rod (3 rpm) during 2 min, % ([4]; Day 3, sham 20, stroke 62.5): 30%
- Relative number of animals with paralysis of 1 to 4 limbs ([4]; Day 7, SO 0, HS 0): 0%
- Relative number of animals with paresis of 1 to 4 limbs ([4]; Day 7, SO 0, HS 0): 0%
- Relative number of animals with ring movements ([4]; Day 7, SO 0, HS 0): 0%
- Relative number of animals with floppiness & slowness of movements ([4]; Day 7, SO 0, HS 43): 0%
- Relative number of animals with limb weakness ([4]; Day 7, SO 0, HS 43): 0%
- Number of rats failing to mount the horizontal bar, % ([4]; Day 7, sham 0, stroke 43): 10%
- Number of rats missing the rotating rod (3 rpm) during 2 min, % ([4]; Day 7, sham 0, stroke 43): 20%
- Number of rats failing to mount the horizontal bar, abs. ([4]; Day 7, sham 0/10, stroke 3/7): 1/10
- Number of rats missing the rotating rod (3 rpm) during 2 min, abs. ([4]; Day 7, sham 0/10, stroke 3/7): 2/10
- Exploration of openings ([4]; Day 7, sham 3.7, stroke 2.9): 4.3 ± 0.9
- Vertical motor activity ([4]; Day 7, sham 4.1, stroke 1.0): 4.4 ± 0.7
- Horizontal motor activity ([4]; Day 7, sham 8.6, stroke 3.7): 8.1 ± 1.6
- Cumulative index ([4]; Day 7, sham 16.4, stroke 7.6): 16.8 ± 2.7
- Relative number of animals with floppiness & slowness of movements ([4]; Day 14, SO 0, HS 0): 0%
- Relative number of animals with limb weakness ([4]; Day 14, SO 0, HS 0): 0%
- Relative number of animals with paralysis of 1 to 4 limbs ([4]; Day 14, SO 0, HS 0): 0%
- Relative number of animals with paresis of 1 to 4 limbs ([4]; Day 14, SO 0, HS 0): 0%
- Relative number of animals with ring movements ([4]; Day 14, SO 0, HS 0): 0%
- Number of rats failing to mount the horizontal bar, % ([4]; Day 14, sham 0, stroke 17): 0%
- Number of rats missing the rotating rod (3 rpm) during 2 min, % ([4]; Day 14, sham 0, stroke 17): 0%
- Number of rats failing to mount the horizontal bar, abs. ([4]; Day 14, sham 0/10, stroke 1/6): 0/10
- Number of rats missing the rotating rod (3 rpm) during 2 min, abs. ([4]; Day 14, sham 0/10, stroke 1/6): 0/10
- Exploration of openings ([4]; Day 14, sham 5.0, stroke 2.8): 3.2 ± 0.9
- Vertical motor activity ([4]; Day 14, sham 5.1, stroke 1.0): 2.8 ± 0.9
- Horizontal motor activity ([4]; Day 14, sham 9.1, stroke 1.8): 7.5 ± 1.7
- Cumulative index ([4]; Day 14, sham 19.2, stroke 5.7): 13.5 ± 2.9
